In EP1000039B1 (Wyeth Holdings Corporation, priority 1997, dated 1999):
pIC50: −log10 of the molar value. In brackets after ≈: the same amount, converted by molar mass.

Experiments:
[1] = system: Human Epidermoid Tumors (A431); assay: In Vivo Inhibition of the Growth of Human Epidermoid Tumors (A431) in mice; conditions: days 1 through 10
[2] = biological target: T1, His-tagged cytoplasmic domain of EGFR (Homo sapiens, UniProt P00533); assay: Inhibition of Epidermal Growth Factor Receptor Kinase (EGF-R) using recombinant enzyme, RR-SRC peptide phosphorylation; type: biochemical; conditions: recombinant enzyme; average of the number of tests; read-out: IC50
T1 construct: containing the EGFR cDNA encoding amino acids 645 - 1186 preceded by Met-Ala-(His)6; Met-Ala-(His)6 (N); made in house; host or cells: Sf9 insect cells, recombinant baculovirus vHcEGFR52
Procedure: The enzyme used in this assay is the His-tagged cytoplasmic domain of EGFR. […] Sf9 cells in 100 mm plates were infected at an moi of 10 pfu/cell and cells were harvested 48 h post infection. A cytoplasmic extract was prepared using 1% Triton X-100 and applied to Ni-NTA column. After washing the column with 20 mM imidazole, HcEGFR was eluted with 250 mM imidazole (in 50 mM Na2HPO4, pH 8.0, 300 mM NaCl). Fractions collected were dialyzed against 10 mM HEPES, pH 7.0, 50 mM NaCl, 10% glycerol, 1ug/mL antipain and leupeptin and 0. 1 mM Pefabloc SC. The protein was frozen in dry ice/methanol and stored -70°C.
For the enzyme reaction, 10 uL of each inhibitor (at various concentrations) were added to each well of a 96-well plate. To this was added 3 uL of enzyme (1: 10 dilution in 10mM HEPES, pH 7.4 for final conc. of 1:120). This was allowed to sit for 10 min on ice and was followed by the addition of 5 ul peptide (80 uM final conc.), 10ul of 4X Buffer (Table A), 0.25 uL ^33P-ATP and 12 uL H2O. The reaction was allowed to run for 90 min at room temperature and was followed by spotting the entire volume on to precut P81 filter papers. The filter discs were washed 2X with 0.5% phosphoric acid and radioactivity was measured using a liquid scintillation counter.

A2780DDP = assay: Inhibition of Cancer Cell Growth (Sulforhodamine B); type: cell-based, Human; conditions: Homo sapiens, 48 hours exposure, read-out: Inhibition of Cancer Cell Growth as Measured by Cell Number (IC50) A2780DDP
Procedure: (§1) After 48 hours exposure to test compounds, cells were fixed with trichloroacetic acid, and stained with Sulforhodamine B. After washing with trichloroacetic acid, bound dye was solubilized in 10 mM Tris base and optical density was determined using plate reader. Under conditions of the assay the optical density is proportional to the number of cells in the well. […] The test procedure is described in details by Philip Skehan et. al. J.Natl. Canc. […]

A2780S = assay: as above; type: cell-based, Human; conditions: Homo sapiens, 48 hours exposure, read-out: Inhibition of Cancer Cell Growth as Measured by Cell Number (IC50) A2780S
Procedure: as §1

A431 = assay: as above; type: cell-based, Human; conditions: Homo sapiens, A-431, 48 hours exposure, read-out: Inhibition of Cancer Cell Growth as Measured by Cell Number (IC50) A431
Procedure: as §1

LOX = assay: as above; type: cell-based, Human; conditions: Homo sapiens, 48 hours exposure, read-out: Inhibition of Cancer Cell Growth as Measured by Cell Number (IC50) LOX
Procedure: as §1

MB435 = assay: as above; type: cell-based, Human; conditions: Homo sapiens, 48 hours exposure, read-out: Inhibition of Cancer Cell Growth as Measured by Cell Number (IC50) MB435
Procedure: as §1

MCF7 = assay: as above; type: cell-based, Human; conditions: Homo sapiens, 48 hours exposure, read-out: Inhibition of Cancer Cell Growth as Measured by Cell Number (IC50) MCF7
Procedure: as §1

SKBR3 = assay: as above; type: cell-based, Human; conditions: Homo sapiens, SK-BR-3, 48 hours exposure, read-out: Inhibition of Cancer Cell Growth as Measured by Cell Number (IC50) SKBR3
Procedure: as §1

SW620 = assay: as above; type: cell-based, Human; conditions: Homo sapiens, SW-620, 48 hours exposure, read-out: Inhibition of Cancer Cell Growth as Measured by Cell Number (IC50) SW620
Procedure: as §1

[3] = system: Human Epidermoid Tumors (A431); assay: In Vivo Inhibition of the Growth of Human Epidermoid Tumors (A431) in mice
Procedure: BALB/c nu/nu female mice (Charles River, Wilmington, MA) were used in the in vivo standard pharmacological test procedures. Human epidermoid carcinoma cells A-431 (American Type Culture Collection, Rockville, Maryland # CRL-155) were grown in vitro as described above. A unit of 5 X 10^6 cells were injected SC into mice. When tumors attained a mass of between 100 and 150 mg, the mice were randomized into treatment groups (day zero). Mice were treated iP or PO once a day either on days 1, 5, and 9 or on days 1 through 10 post staging with doses of either 80, 40 or 20, or 10 mg/kg/dose of the compound to be evaluated in 0.2% Klucel. Control animals received no drug. Tumor mass was determined every 7 days [(length X width^2)/2) for 28 days post staging. Relative tumor growth (Mean tumor mass on day 7, 14, 21, and 28 divided by the mean tumor mass on day zero) is determined for each treatment group. The %T/C (Tumor/Control) is determined by dividing the relative tumor growth of the treated group by the relative tumor growth of the placebo group and multiplying by 100. A compound is considered to be active if the %T/C is found to be […].

[4] = biological target: epidermal growth factor receptor kinase (Homo sapiens, UniProt P00533); assay: Inhibition of Epidermal Growth Factor Receptor Kinase (EGF-R), cell membrane preparation (A431 membrane extract), RR-SRC peptide phosphorylation; conditions: average of the number of tests
Chain of epidermal growth factor receptor kinase (P00533 25-1210): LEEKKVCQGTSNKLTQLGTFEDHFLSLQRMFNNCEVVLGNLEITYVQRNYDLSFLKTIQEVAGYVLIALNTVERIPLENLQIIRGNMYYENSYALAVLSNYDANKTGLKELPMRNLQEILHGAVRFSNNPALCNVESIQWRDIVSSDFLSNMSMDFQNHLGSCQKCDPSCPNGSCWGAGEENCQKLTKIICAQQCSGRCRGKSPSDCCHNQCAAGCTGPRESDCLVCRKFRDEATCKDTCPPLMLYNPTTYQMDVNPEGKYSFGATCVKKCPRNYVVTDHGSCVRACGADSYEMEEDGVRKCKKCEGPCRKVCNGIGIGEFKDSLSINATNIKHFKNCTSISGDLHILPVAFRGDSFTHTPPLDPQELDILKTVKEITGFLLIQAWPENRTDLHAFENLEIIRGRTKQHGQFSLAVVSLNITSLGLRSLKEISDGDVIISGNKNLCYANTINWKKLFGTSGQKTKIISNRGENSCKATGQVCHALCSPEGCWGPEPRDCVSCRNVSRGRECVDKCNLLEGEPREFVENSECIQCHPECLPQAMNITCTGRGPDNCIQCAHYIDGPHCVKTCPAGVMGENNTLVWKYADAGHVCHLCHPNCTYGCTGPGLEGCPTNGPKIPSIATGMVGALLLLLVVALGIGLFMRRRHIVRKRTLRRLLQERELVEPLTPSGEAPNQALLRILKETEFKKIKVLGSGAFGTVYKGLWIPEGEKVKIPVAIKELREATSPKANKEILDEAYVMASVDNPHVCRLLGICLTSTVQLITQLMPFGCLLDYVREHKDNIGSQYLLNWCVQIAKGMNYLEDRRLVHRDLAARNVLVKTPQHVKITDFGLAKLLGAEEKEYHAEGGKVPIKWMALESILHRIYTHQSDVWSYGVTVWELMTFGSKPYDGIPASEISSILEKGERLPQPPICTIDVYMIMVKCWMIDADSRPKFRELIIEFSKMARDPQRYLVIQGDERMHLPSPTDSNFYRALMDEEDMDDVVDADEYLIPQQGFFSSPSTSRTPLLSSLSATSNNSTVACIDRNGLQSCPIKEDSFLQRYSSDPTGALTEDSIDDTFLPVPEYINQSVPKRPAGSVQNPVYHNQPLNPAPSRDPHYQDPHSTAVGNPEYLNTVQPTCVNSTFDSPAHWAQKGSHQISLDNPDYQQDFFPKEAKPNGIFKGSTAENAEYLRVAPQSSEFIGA
Procedure: Test compounds were evaluated for their ability to inhibit the phosphorylation of the tyrosine residue of a peptide substrate catalyzed by the enzyme epidermal growth factor receptor kinase. […] The enzyme was obtained as a membrane extract of A431 cells (American Type Culture Collection, Rockville, MD). A431 cells were grown in T175 flasks to 80% confluency. The cells were washed twice with phosphate buffered saline (PBS) without Ca^2+. Flasks were rotated for 1.5 hours in 20 mL PBS with 1.0 mM ethylenediaminetetraacetic acid (EDTA) at room temperature and centrifuged at 600g for 10 minutes. […]
An aliquot of the A431 membrane extract (10 mg/mL) was diluted in 30 mM HEPES (pH 7.4) to give a protein concentration of 50 ug/mL. […] The % inhibition of the test compound was determined for at least three different concentrations and the IC50 value was evaluated from the dose response curve. […] CPM(control) is in units of counts per minute and was a number expressing the amount of radiolabled ATP (γ-^33P) incorporated onto the RR-SRC peptide substrate by the enzyme after 30 minutes at 30°C in the absence of test compound as measured by liquid scintillation counting. […]

T1 sequence (P00533 669-1210): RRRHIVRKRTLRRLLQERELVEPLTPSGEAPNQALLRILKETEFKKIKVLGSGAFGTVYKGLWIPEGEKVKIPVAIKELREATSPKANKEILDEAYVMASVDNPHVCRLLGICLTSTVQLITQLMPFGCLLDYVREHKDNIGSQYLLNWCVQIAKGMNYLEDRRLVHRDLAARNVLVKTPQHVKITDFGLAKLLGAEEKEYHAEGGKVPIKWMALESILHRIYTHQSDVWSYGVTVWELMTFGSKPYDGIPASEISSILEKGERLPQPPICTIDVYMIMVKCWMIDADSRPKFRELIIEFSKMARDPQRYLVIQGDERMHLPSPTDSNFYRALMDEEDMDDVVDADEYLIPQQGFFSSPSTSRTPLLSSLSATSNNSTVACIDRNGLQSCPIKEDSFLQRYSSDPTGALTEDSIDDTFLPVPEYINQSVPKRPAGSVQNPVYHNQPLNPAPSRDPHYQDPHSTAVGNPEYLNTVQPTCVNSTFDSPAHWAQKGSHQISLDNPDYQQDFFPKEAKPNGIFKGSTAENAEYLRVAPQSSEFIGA

SMILES	%T/C Day 16 ([1]; 10 mg/kg/dose PO (footnote: IP)) [%]	%T/C Day 16 ([1]; 20 mg/kg/dose PO (footnote: IP)) [%]	%T/C Day 16 ([1]; 40 mg/kg/dose PO (footnote: IP)) [%]	pIC50 [2]	IC50 (A2780DDP) [µg/mL]	IC50 (A2780S) [µg/mL]	IC50 (A431) [µg/mL]	IC50 (LOX) [µg/mL]	IC50 (MB435) [µg/mL]	IC50 (MCF7) [µg/mL]	IC50 (SKBR3) [µg/mL]	IC50 (SW620) [µg/mL]	S/T (No. Survivors/No. Treated on Day +28 post tumor staging) ([3]; Table 5: 40 PO, days 1 through 10)	%T/C Day 7 ([3]; Table 5: 40 PO, days 1 through 10, Day 7) [%]	%T/C Day 14 ([3]; Table 5: 40 PO, days 1 through 10, Day 14) [%]	%T/C Day 21 ([3]; Table 5: 40 PO, days 1 through 10, Day 21) [%]	%T/C Day 28 ([3]; Table 5: 40 PO, days 1 through 10, Day 28) [%]	inhibition of tumor growth in vivo (result in words) ([3]; summary of the results of TABLE 4 / TABLE 5)	pIC50 [4]
CN(C)CC#CC(=O)Nc1ccc2ncnc(Nc3cccc(Br)c3)c2c1 [Example 21, 4-Dimethylamino-but-2-ynoic acid [4-(3-bromo-phenylamino)-quinazolin-6-yl]-amide]	56	82	84																
CCN(CC)CC#CC(=O)Nc1ccc2ncnc(Nc3cccc(Br)c3)c2c1 [Example 25, 4-Diethylamino-but-2-ynoic acid [4-(3-bromo-phenylamino)-quinazolin-6-yl]-amide]				7.85	0.04 (≈ 0.0884 µM)	0.04 (≈ 0.0884 µM)	0.06 (≈ 0.133 µM)	0.1 (≈ 0.221 µM)	0.05 (≈ 0.111 µM)	0.74 (≈ 1.64 µM)	0.004 (≈ 0.00884 µM)	0.07 (≈ 0.155 µM)	4/5	71	33	40	52	effective inhibitor of tumor growth in vivo	
CCOc1c(Nc2ccc3ncnc(Nc4cccc(Br)c4)c3c2)c(=O)c1=O [Example 48, 3-[4-(3-Bromo-phenylamino)-quinazolin-6-ylamino]-4-ethoxy-cyclobut-3-ene-1,2-dione]				8.70	3.71 (≈ 8.45 µM)	4.74 (≈ 10.8 µM)	3.11 (≈ 7.08 µM)	3.55 (≈ 8.08 µM)	5.48 (≈ 12.5 µM)	5.42 (≈ 12.3 µM)	3.79 (≈ 8.63 µM)	2.81 (≈ 6.4 µM)							
CN(C)c1c(Nc2ccc3ncnc(Nc4cccc(Br)c4)c3c2)c(=O)c1=O [Example 49, 3-[4-(3-Bromo-phenylamino)-quinazolin-6-ylamino]-4-dimethylamino-cyclobut-3-ene-1,2-dione]				7.00	3.16 (≈ 7.21 µM)	4.81 (≈ 11 µM)	2.83 (≈ 6.46 µM)	3.48 (≈ 7.94 µM)	5.2 (≈ 11.9 µM)	6.72 (≈ 15.3 µM)	3.57 (≈ 8.15 µM)	3.61 (≈ 8.24 µM)							
CNc1c(Nc2ccc3ncnc(Nc4cccc(Br)c4)c3c2)c(=O)c1=O [Example 50, 3-[4-(3-Bromo-phenylamino)-quinazolin-6-ylamino]-4-methylamino-cyclobut-3-ene-1,2-dione]				9.40	> 100	> 100	> 100	> 100	> 100	> 100	> 100	> 100							
Nc1c(Nc2ccc3ncnc(Nc4cccc(Br)c4)c3c2)c(=O)c1=O [Example 51, 3-Amino-4-[4-(3-bromo-phenylamino)-quinazolin-6-ylamino]-cyclobut-3-ene-1,2-dione]				8.15	6.92 (≈ 16.9 µM)	56.9 (≈ 139 µM)	6.84 (≈ 16.7 µM)	56.5 (≈ 138 µM)	> 100	> 100	6.21 (≈ 15.1 µM)	> 100							
COCCOCC#CC(=O)Nc1ccc2ncnc(Nc3cccc(Br)c3)c2c1 [Example 55, 4-(2-Methoxy-ethoxy)-but-2-ynoic acid [4-(3-bromo-phenylamino)-quinazolin-6-yl]-amide]				8.70	0.5 (≈ 1.1 µM)	0.02 (≈ 0.0439 µM)	0.4 (≈ 0.879 µM)	0.2 (≈ 0.439 µM)	2.8 (≈ 6.15 µM)	5 (≈ 11 µM)	0.3 (≈ 0.659 µM)	0.1 (≈ 0.22 µM)							
COCOCC#CC(=O)Nc1ccc2ncnc(Nc3cccc(Br)c3)c2c1 [Example 57, 4-Methoxymethoxy-but-2-ynoic acid [4-(3-bromo-phenylamino)-quinazolin-6-yl]-amide]				8.10	2.5 (≈ 5.67 µM)	0.7 (≈ 1.59 µM)	2.8 (≈ 6.35 µM)	0.9 (≈ 2.04 µM)	5.7 (≈ 12.9 µM)	8.7 (≈ 19.7 µM)	1.2 (≈ 2.72 µM)	1.8 (≈ 4.08 µM)							
C=C(CNc1ccc2ncnc(Nc3cccc(Br)c3)c2c1)C(=O)OC [Example 59, 2-{[4-(3-Bromo-phenylamino)-quinazolin-6-ylamino]-methyl)-acrylic acid methyl ester]					0.603 (≈ 1.46 µM)	0.424 (≈ 1.03 µM)	0.315 (≈ 0.762 µM)	0.482 (≈ 1.17 µM)		1.58 (≈ 3.82 µM)		0.581 (≈ 1.41 µM)							8.90
COC(=O)/C=C/CNc1ccc2ncnc(Nc3cccc(Br)c3)c2c1 [Example 60, (E)-4-[4-(3-Bromo-phenylamino)-quinazolin-6-ylamino]-but-2-enoicacid methyl ester]					0.626 (≈ 1.51 µM)	0.749 (≈ 1.81 µM)	0.35 (≈ 0.847 µM)	0.725 (≈ 1.75 µM)		0.566 (≈ 1.37 µM)		1.89 (≈ 4.57 µM)							7.47
CC#CC(=O)Nc1ccc2ncnc(Nc3cccc(N(C)C)c3)c2c1 [Example 61, But-2-ynoic acid [4-(3-dimethylamino-phenylamino)-quinazolin-6-yl]-amide]				7.10	1.39 (≈ 4.02 µM)	1.86 (≈ 5.38 µM)	0.73 (≈ 2.11 µM)	0.5 (≈ 1.45 µM)	4.35 (≈ 12.6 µM)	3.62 (≈ 10.5 µM)	0.04 (≈ 0.116 µM)	0.43 (≈ 1.24 µM)							
